This assay concerns T1, SulA1.
T1 construct: forward primer encodes MVSSSPA (translated here)
The assay can be described thus: GalNAc release by HPAEC-PAD, Michaelis-Menten nonlinear fit. It counts as biochemical, Arthrobacter sp. MAT3885. The following applies: pH 5.5, 40 °C, 30 min, 0-20 mM substrate; 100 mM acetate buffer; unit not printed beside the value, taken from the mM axis of Figure 9B.

For orientation: Km means the substrate concentration at which the rate is half of its maximum. For `CC(=O)N[C@H]1C(O)O[C@H](CO)[C@H](OS(=O)(=O)O)[C@@H]1O` (stereo partly drawn) [GalNAc4S, N-Acetyl-D-galactosamine-4-sulfate], the Km turned out to be 6.94 ± 0.053 mM.

For the origin of these results see paper PMC10972148, “Cloning and Characterization of a Novel N-Acetyl-D-galactosamine-4-O-sulfate Sulfatase, SulA1, from a Marine Arthrobacter Strain” (Marine Drugs, 2024).
